Laboratory results reported in US11786498B2, “Sacubitril calcium salts” (Novartis AG, priority 2015, dated 2023).
Counter-ions that a name gives are not always drawn.

Columns and labels:
Type in all cases: physicochemical
[1] = Water uptake / hygroscopicity at relative humidity (sorption-desorption)
[2] = Solvent loss as a function of temperature as measured by TG/DTA
Protocol: (ii) Thermogravimetric/Differential Thermal Analysis (TG/DTA)
Differential scanning calorimetry was conducted for each crystalline form using a Seiko TG/DTA Instrument. For each analysis, the DSC cell/sample chamber was purged with 100 mL/min of ultra-high purity nitrogengas. The instrument was calibrated with high purity indium. The heating rate was 10° C. per minute in the temperature range between 25 and 300° C. The heat flow, which was normalized by sample weight, was plotted versus the measured sample temperature. The data were reported in units of watts/gram (“W/g”). The plot was made with the endothermic peaks pointing down. The endothermic melt peak (melting point) was evaluated for extrapolated onset temperature.

[3] = Solid form stability on wet granulation, equilibration, humidity exposure, compression, grinding (XRPD); conditions: for form change on wet granulation: wet granulation (with water)
Protocol: (i) X-Ray Powder Diffraction (XRPD) The X-ray powder diffraction pattern was determined using a Scintag XDS 2000 diffractometer instrument. The X-ray diffraction pattern was recorded between 2° and 35° (2θ) with CuK radiation (45 kV, 40 mA). The measurements were performed at about 45 kV and 40 mA under the following conditions: • Scan rate: 0.5° (20)/min • Chopper increment: 0.02° • Slits (from left to right): 2, 3, 0.3, 0.2 mm

Flowability of the solid = test: Flowability of the solid

## CCOC(=O)[C@H](C)CC(Cc1ccc(-c2ccccc2)cc1)NC(=O)CCC(=O)O (stereo partly drawn) [Modification A, calcium salt of N-(3-carboxyl-1-oxopropyl)-(4S)-(p-phenylphenylmethyl)-4-amino-(2R)-methyl butanoic acid ethyl ester]
[1]
  hygroscopicity (in words): hygroscopic
[1]; at 95% RH
  water uptake: 13.8%

## CCOC(=O)[C@H](C)CC(Cc1ccc(-c2ccccc2)cc1)NC(=O)CCC(=O)O (stereo partly drawn) [Modification B, calcium salt of N-(3-carboxyl-1-oxopropyl)-(4S)-(p-phenylphenylmethyl)-4-amino-(2R)-methyl butanoic acid ethyl ester]
[1]
  hygroscopicity (in words): only slightly hygroscopic
[1]; can reach up to
  water uptake, maximum reached: up to 11%
[1]; up to 75% RH
  hygroscopicity (water uptake) under typical humidity levels: < 2%
[2]
  thermal stability: thermally stable up to its melting point
[3]; equilibration in water or ethanol/water 1:1
  form change on equilibration in solvent: Hydrate formation was observed
[3]
  form change on wet granulation: Hydrate formation was observed

## CCOC(=O)[C@H](C)CC(Cc1ccc(-c2ccccc2)cc1)NC(=O)CCC(=O)O (stereo partly drawn) [Modification HB, calcium salt of N-(3-carboxyl-1-oxopropyl)-(4S)-(p-phenylphenylmethyl)-4-amino-(2R)-methyl butanoic acid ethyl ester]
Flowability of the solid
  flowability: good flowability properties
[1]; 25° C., relative humidity from 0% to 80%
  behaviour at humidity (in words): remains dry
[1]; at 95% RH
  water uptake: 2.0%
[1]; sorption-desorption experiments
  form retention during take-up and release of water: retained
[2]
  water levels as obtained: 1.4-4.1%
[2]; TG/DTA, 10° C./min, nitrogen, listed as HB
  Loss on drying (LOD): 3.4%
[2]; heating
  temperature required for complete dehydration: above 97 °C

## CCOC(=O)[C@H](C)CC(Cc1ccc(-c2ccccc2)cc1)NC(=O)CCC(=O)O (stereo partly drawn) [amorphous AHU377 calcium salt, calcium salt of N-(3-carboxyl-1-oxopropyl)-(4S)-(p-phenylphenylmethyl)-4-amino-(2R)-methyl butanoic acid ethyl ester]
[1]; at 80% RH
  water uptake: 15.2%
[3]; >75% RH
  form change on exposure to elevated humidity: turns into a crystalline hydrate
[3]; compression for 5 min at 10 t, XRPD
  form change after compression: No change of the amorphous form
[3]; grinding, XRPD
  form change after grinding: No change of the amorphous form
[3]
  form change on wet granulation: rapidly leads to hydrate formation
